Test results taken from patent EP2835640A1, “Method for predicting the skin sensitizing activity of a compound” (Academisch Ziekenhuis Leiden HODN Leids Universitair …, priority 2013, dated 2015).
Residues, ends and D or L forms follow the SMILES beside them. *: point of attachment. Cbz = O=C(OCc1ccccc1)*

How the values were obtained:
Monolayer keratinocytes = assay: WST-1 cell viability assay, monolayers; format: cell-based, human; conditions: WST-1, 24 h of treatment
Protocol: Cell viability of monolayers was measured using WST-1 assay (Roche diagnostics, Mannheim, Germany). Briefly, cells were seeded in 96-well flat-bottom plates (Greiner Bio-One, Frickenhausen, Germany) in 100 µl of culture medium 24-48 h prior to chemical treatment. After 24 h of treatment with an irritant or sensitizer, 10 µl of WST-1 reagent was added and plates were further incubated up to 3 h at 37°C. […] Monolayer keratinocytes were exposed to DNCB (10 µM) and SDS (80µM) at 80% cell viability concentrations.

Nrf2 dependent genes [1] = assay: Quantitative PCR of gene expression, monolayer primary keratinocytes; format: cell-based, human; conditions: 4 h, mRNA
Protocol: (§1) Total RNA was prepared using RNeasy mini kit (Qiagen) according to the manufacturer's protocol. RNA was quantified using a Nanodrop ND-1000 spectrophotometer. First- strand cDNA synthesis was derived from 1 ug of total RNA using the iscript cDNA synthesis kit (Biorad) according to the manufacturer's protocol. Primers were tested in normal KC cDNA. Stability of reference genes was analyzed with the GeNorm method (Vandesompele et al., 2002). Expression analysis was performed with the BioRad software (iQ5) and was based on the delta delta Ct method with the reference genes that were most stably expressed according to the GeNorm analysis.
(§2) Expression levels of the following genes were measured: HMOX-1 (Hemeoxygenase-1), GCLM (Glutamate-cysteine ligase modifier subunit), TXNRD1 (Thioredoxin reductase 1), OSGIN-1 (oxidative stress induced growth inhibitor 1), B2M (Beta-2 microglobulin), GUSB (Glucuronidase beta) and TBP (TATA binding protein). Quantitative real-time PCR was determined by using the following primer sets: • 5'-[…]-'3 (HMOX-1), • 5'-[…]-'3 GCLM), • 5'-[…]-'3 (TXNRD1), • 5'- TGCTGCAGAGGAAGCTCAC-'3 (OSGIN1), • 5'-[…]-'3 (B2M), • 5'-[…]-'3 (GUSB), • 5'-[…]-'3 (TBP).
(§3) Real-Time PCRs were performed in 10 µl reaction volumes using the MylQ system and SYBR Green PCR Master- mix (Biorad) according to the manufacturer's protocol. […]

Nrf2 dependent genes [2] = assay: Quantitative PCR of gene expression, N/TERT monolayer cultures; format: cell-based, human; conditions: 4 h, mRNA
Protocol: as §1, §2
Real-Time PCRs were performed in 10 µl reaction volumes using the MylQ system and SYBR Green PCR Master- mix (Biorad) according to the manufacturer's protocol.
The PCR cycles were: 3 minutes at 95 °C to activate the polymerase, 40 cycles of 20 seconds at 95 °C and 40 seconds at 60 °C, followed by the generation of a melt curve.
All qPCR values were averaged relative to the three different reference genes: B2M, GUSB, TBP. For each data point, PCRs were performed in duplicate and values represent means ± standard deviation.

Nrf2 dependent genes [3] = assay: Quantitative PCR of gene expression, NEMs; format: cell-based, human; conditions: 4 h, mRNA
Protocol: Medium was refreshed every 2 days.
as §1, §2, §3

NEMs = assay: MTT cell viability assay, epidermal model; conditions: topical exposure
Protocol: The LEMs and the NEMs were constructed by seeding 200.000 cells on insert filters (12 wells plate, polyester membrane, Costar) in Dermalife K medium including lifefactors (Lifeline Cell Technology, Walkersville, MD) until full density was reached. […] Thereafter they were cultured in CNT medium (basal medium plus supplement kit, CellnTec, Bern, Switzerland). […] Medium was refreshed every 2 days. LEMs and NEMs were air-exposed for 12 days at 37 °C and 7.3% CO2 prior to analysis.
Twelve days air-exposed LEMs or NEMs were covered with a 11 mm filter paper disc (Finn Chamber, Phoenix, USA). Chemicals with different doses were applied onto the filters and incubated for 24 h and thereafter washed away with PBS. LEMs or NEMs were then incubated with thiazolyl blue tetrazolium bromide (MTT), (Sigma). MTT stock of 5 mg/ml PBS (filter sterilized) was diluted to a final concentration of 1 mg/ml in colourless DMEM medium. MTT medium was added to the cell cultures and incubated for 3 h at 37°C. Viable cells were then allowed to reduce the tetrazolium dye to its insoluble formazan, which has a purple colour. Therefore, after 3 hours, the MTT was removed and washed away with PBS. After drying, the formazan was dissolved in 2ml of isopropanol overnight at room temperature. Absorbance was measured at 570 nm using a plate reader (TECAN infinite F200) in order to calculate the cell viability.

[4] = skin sensitizing potency; cited from earlier work
Nrf2 [5] = assay: Nuclear fractionation and Western blot, monolayer primary keratinocytes; format: cell-based, human
Source text: (§4) Nuclear fractions of monolayer cultures and reconstructed epidermis were isolate using a Nuclear extract kit (Active motif, Carlsbad, CA) according to the manufacturer's protocol. Nuclear fractions were subjected to Western blot analysis.
(§5) Monolayer cells were lysed in M-Per buffer (Thermo Scientific, Rockford, USA), reconstructed epidermis was cut in pieces and lysed in T-Per lysis buffer (Thermo Scientific, Rockford, USA) both supplemented with protease inhibitor cocktail EDTA-free and HALTTM phosphatase inhibitors (Thermo Scientific). Cell lysates were measured using the BCATM protein assay kit (Thermo Scientific). Equal amounts of proteins were separated by SDS-page. Proteins were transferred onto PVDF- transfer membranes (Thermo Scientific). […] After four times washing with PBST, proteins were detected by enhanced chemi-luminescence (Super signal West femto (Pierce Thermo Scientific, Rockford, USA) and visualized by exposure to X-ray film (Fujifilm Europe GmbH, Düsseldorf, Germany).
(§6) Next we investigated whether Nrf2 expression could be stabilized by inhibiting the proteasome that is responsible for a constitutive degradation of Nrf2. […] Although the Nrf2 translocation was clearly visible, we used a second approach enabling quantification of the amount of translocated Nrf2. […]

Nrf2 [6] = assay: Nuclear fractionation and Western blot, N/TERT monolayer cultures; format: cell-based, human
Source text: as §4, §5, §6

Nrf2 [7] = assay: Nrf2 nuclear translocation by immunohistochemical analysis, NEMs; format: cell-based, human; conditions: NEMs 12 days air-exposed, 4 h treatment

O=[N+]([O-])c1ccc(Cl)c([N+](=O)[O-])c1 [DNCB, 2,4-dinitrochlorobenzene]
80% cell viability concentrations (Monolayer keratinocytes): 10 µM
Expression of GCLM (Nrf2 dependent genes [1]): approx. 1,2 fold
Expression of OSGIN-1 (Nrf2 dependent genes [1]): approx. 1,2 fold
Expression of GCLM (Nrf2 dependent genes [2]): approx. 1,2 fold
Expression of OSGIN-1 (Nrf2 dependent genes [2]): approx. 1,2 fold
Expression of TXNRD-1 (Nrf2 dependent genes [2]): approx. 1,2 fold
Expression of GLCM (Nrf2 dependent genes [3]): approx. 3,2 fold
Expression of OSGIN-1 (Nrf2 dependent genes [3]): approx. 2 fold
concentrations of 80 - 85% CV (NEMs): 500 µM

CC=Cc1ccc(O)c(OC)c1 [IsoEu, Isoeugenol]
Potency category [4]: moderate
concentrations of 80 - 85% CV (NEMs): 15000 µM

CC(C)C[C@@H](C=O)NC(=O)[C@H](CC(C)C)NC(=O)[C@H](CC(C)C)NC(=O)OCc1ccccc1 [MG132] (Cbz-Leu-Leu-Leu-aldehyde)
Nrf2 protein levels in nuclear lysates (Nrf2 [5]): elevated levels of Nrf2
Nrf2 protein levels in nuclear lysates (Nrf2 [6]): elevated levels of Nrf2

Nc1ccc(N)cc1 [PPD, p-Phenylenediamine]
concentrations of 80 - 85% CV (NEMs): 35000 µM

CCCCCCCCCCCCOS(=O)(=O)[O-].[Na+] [SDS, Sodium Dodecyl Sulfate]
80% cell viability concentrations (Monolayer keratinocytes): 80 µM
Nrf2 in the nuclei (Nrf2 [7]): Nrf2 was only translocated to the nucleus after DNCB treatment
